“And” between values parts separate entries of the source, which are not always exact repeats. Identical values can stand only once. Inconclusive results and toxic doses are left out.
System: P388 leukemia ip, CD2F1 mice, survival T/C
Assay: NCI In Vivo Anticancer Drug Screen. Data for tumor model P388 Leukemia (intraperitoneal) in CD2F1 (CDF1) mice
Settings: endpoint: median survival time, higher = longer survival
Summary of the method: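 Mice carrying the transplanted tumor received test compound or vehicle. Survival was recorded in each group, and the value is the treated-group measurement divided by that of the vehicle-treated control group.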

[1] = dose: 50.0 mg/kg/injection, schedule: Q01DX009 (ip), vehicle: saline with Tween-80
[2] = dose: 100.0 mg/kg/injection, schedule: Q01DX009 (ip), vehicle: saline with Tween-80
[3] = dose: 200.0 mg/kg/injection, schedule: Q01DX009 (ip), vehicle: saline with Tween-80
[4] = dose: 50.0 mg/kg/injection, schedule: Q01DX009 (ip), vehicle: saline
[5] = dose: 100.0 mg/kg/injection, schedule: Q01DX009 (ip), vehicle: saline
[6] = dose: 200.0 mg/kg/injection, schedule: Q01DX009 (ip), vehicle: saline
[7] = dose: 60.0 mg/kg/injection, schedule: Q01DX005 (ip), vehicle: saline with Tween-80
[8] = dose: 120.0 mg/kg/injection, schedule: Q01DX005 (ip), vehicle: saline with Tween-80
[9] = dose: 240.0 mg/kg/injection, schedule: Q01DX005 (ip), vehicle: saline with Tween-80
[10] = dose: 100.0 mg/kg/injection, schedule: Q04DX002 (ip), vehicle: saline with Tween-80

In the case of `CCOC(=O)c1c(O)cc(C)[nH]c1=O`, the T/C [1] was 103 % of control and 96 % of control, the T/C [2] was 100 % of control and 94 % of control and 98 % of control and the T/C [3] was 103 % of control and 106 % of control and 93 % of control. The T/C (dose: 400.0 mg/kg/injection, schedule: Q01DX009 (ip), vehicle: saline with Tween-80) was 104 % of control and 106 % of control and 122 % of control.

`CCOC(=O)c1ncc(OCC)o1` was tested, and the T/C [4] was 91 % of control, the T/C [5] was 89 % of control and the T/C [6] was 95 % of control.

With `CC(=O)Nc1ccc(C(=O)N2C(=N)C(C#N)=C(O)/C2=C\c2ccc(Cl)c(Cl)c2)cc1` the T/C (dose: 60.0 mg/kg/injection, schedule: Q01DX005 (ip), vehicle: saline) was 100 % of control, the T/C (dose: 120.0 mg/kg/injection, schedule: Q01DX005 (ip), vehicle: saline) was 100 % of control and the T/C (dose: 240.0 mg/kg/injection, schedule: Q01DX005 (ip), vehicle: saline) was 103 % of control.

`CSc1nc(NC2OCC(OC(C)=O)C(OC(C)=O)C2OC(C)=O)c(N=C(C)C(C)=O)c(=O)[nH]1` (stereo not drawn) was tested, and the T/C [7] was 95 % of control, the T/C [8] was 108 % of control and the T/C [9] was 95 % of control.

`CCC1C(=O)OCCOCCOCCOCCOC1=O` was tested, and the T/C (dose: 100.0 mg/kg/injection, schedule: Q04DX003 (ip), vehicle: Klucel (hydroxypropylcellulose) (HPC)) was 106 % of control, the T/C (dose: 200.0 mg/kg/injection, schedule: Q04DX003 (ip), vehicle: Klucel (hydroxypropylcellulose) (HPC)) was 100 % of control and the T/C (dose: 400.0 mg/kg/injection, schedule: Q04DX003 (ip), vehicle: Klucel (hydroxypropylcellulose) (HPC)) was 107 % of control.

In the case of `CCn1c2ccccc2c2ccc(N=Cc3ccc(N(C)C)cc3)cc21`, the T/C (dose: 50.0 mg/kg/injection, schedule: Q01DX009 (ip), vehicle: Klucel (hydroxypropylcellulose) (HPC)) was 89 % of control, the T/C (dose: 100.0 mg/kg/injection, schedule: Q01DX009 (ip), vehicle: Klucel (hydroxypropylcellulose) (HPC)) was 94 % of control and the T/C (dose: 200.0 mg/kg/injection, schedule: Q01DX009 (ip), vehicle: Klucel (hydroxypropylcellulose) (HPC)) was 103 % of control.

`CCCN(C)CC(=O)NC(Cc1ccccc1)c1ccccc1` (stereo not drawn) was tested, and the T/C (dose: 30.0 mg/kg/injection, schedule: Q01DX005 (ip), vehicle: Klucel (hydroxypropylcellulose) (HPC)) was 94 % of control, the T/C (dose: 60.0 mg/kg/injection, schedule: Q01DX005 (ip), vehicle: Klucel (hydroxypropylcellulose) (HPC)) was 93 % of control and the T/C (dose: 120.0 mg/kg/injection, schedule: Q01DX005 (ip), vehicle: Klucel (hydroxypropylcellulose) (HPC)) was 104 % of control.

For `CCC1C(OC)=CC2(CC)CC1(OC)OC2=O` (stereo not drawn), the T/C [7] was 97 % of control, the T/C [8] was 98 % of control and the T/C [9] was 102 % of control.

For `N#CCCCCCBr`, the T/C [1] was 98 % of control, the T/C [2] was 100 % of control and the T/C [3] was 100 % of control.

With `CC(C)(C)NC(=O)c1cccc(C(N)=O)n1` the T/C [7] was 94 % of control, the T/C [8] was 93 % of control and the T/C [9] was 97 % of control.

For `CCc1cn[nH]c(=O)c1`, the T/C [4] was 110 % of control, the T/C [5] was 96 % of control and the T/C [6] was 104 % of control.

With `Cc1ccccc1C1(Br)C(=O)c2ccccc2C1=O` the T/C (dose: 100.0 mg/kg/injection, schedule: Q04DX002 (ip), vehicle: saline) was 101 % of control, the T/C (dose: 200.0 mg/kg/injection, schedule: Q04DX002 (ip), vehicle: saline) was 101 % of control and the T/C (dose: 400.0 mg/kg/injection, schedule: Q04DX002 (ip), vehicle: saline) was 102 % of control.

For `O=C1NNC(c2ccccc2)=Nc2[nH]ncc21`, the T/C [10] was 96 % of control, the T/C (dose: 200.0 mg/kg/injection, schedule: Q04DX002 (ip), vehicle: saline with Tween-80) was 93 % of control and the T/C (dose: 400.0 mg/kg/injection, schedule: Q04DX002 (ip), vehicle: saline with Tween-80) was 93 % of control.

`O=C1c2ccccc2-c2c1c1ccccc1c(=O)n2CCO` was tested, and the T/C (dose: 50.0 mg/kg/injection, schedule: Q01DX005 (ip), vehicle: saline with Tween-80) was 96 % of control, the T/C (dose: 100.0 mg/kg/injection, schedule: Q01DX005 (ip), vehicle: saline with Tween-80) was 94 % of control and the T/C (dose: 200.0 mg/kg/injection, schedule: Q01DX005 (ip), vehicle: saline with Tween-80) was 105 % of control.

With `COc1cccc2c1C(=O)c1c(O)c3c(c(O)c1C2=O)C[C@@](O)(C(O)CO)C[C@@H]3OC1CC(N(Cc2ccccc2)Cc2ccccc2)C(O)C(C)O1` (stereo partly drawn) the T/C (dose: 6.25 mg/kg/injection, schedule: Q04DX003 (ip), vehicle: water) was 100 % of control, the T/C (dose: 12.5 mg/kg/injection, schedule: Q04DX003 (ip), vehicle: water) was 109 % of control and the T/C (dose: 25.0 mg/kg/injection, schedule: Q04DX003 (ip), vehicle: water) was 100 % of control. The T/C (dose: 50.0 mg/kg/injection, schedule: Q04DX003 (ip), vehicle: water) was 170 % of control and the T/C (dose: 100.0 mg/kg/injection, schedule: Q04DX003 (ip), vehicle: water) was 209 % of control and 212 % of control.

`CC1=C(O)c2[nH]c(Cl)c(C=O)c2C(=O)C1=O` was tested, and the T/C (dose: 100.0 mg/kg/injection, schedule: Q01DX001 (ip), vehicle: saline with Tween-80) was 100 % of control, the T/C (dose: 200.0 mg/kg/injection, schedule: Q01DX001 (ip), vehicle: saline with Tween-80) was 98 % of control and the T/C (dose: 400.0 mg/kg/injection, schedule: Q01DX001 (ip), vehicle: saline with Tween-80) was 98 % of control.

For `CCNCc1c(C)nc2ccc(N(C)C)cc2c1Cl`, the T/C (dose: 12.5 mg/kg/injection, schedule: Q01DX009 (ip), vehicle: saline with Tween-80) was 91 % of control, the T/C (dose: 25.0 mg/kg/injection, schedule: Q01DX009 (ip), vehicle: saline with Tween-80) was 104 % of control and the T/C [1] was 88 % of control.

`Cc1ccc(S(=O)(=O)NNC(=O)c2ccccc2Nc2cccc(Br)c2)cc1` was tested, and the T/C (dose: 100.0 mg/kg/injection, schedule: Q01DX001 (ip), vehicle: Klucel (hydroxypropylcellulose) (HPC)) was 97 % of control, the T/C (dose: 200.0 mg/kg/injection, schedule: Q01DX001 (ip), vehicle: Klucel (hydroxypropylcellulose) (HPC)) was 97 % of control and the T/C (dose: 400.0 mg/kg/injection, schedule: Q01DX001 (ip), vehicle: Klucel (hydroxypropylcellulose) (HPC)) was 98 % of control.

`CC(=O)c1ccc2ccccc2n1` was tested, and the T/C (dose: 25.0 mg/kg/injection, schedule: Q01DX009 (ip), vehicle: other) was 102 % of control, the T/C (dose: 50.0 mg/kg/injection, schedule: Q01DX009 (ip), vehicle: other) was 105 % of control and the T/C (dose: 100.0 mg/kg/injection, schedule: Q01DX009 (ip), vehicle: other) was 111 % of control. For the same compound, the T/C (dose: 200.0 mg/kg/injection, schedule: Q01DX009 (ip), vehicle: other) was 114 % of control and the T/C (dose: 400.0 mg/kg/injection, schedule: Q01DX009 (ip), vehicle: other) was 114 % of control.

For `CSC(=S)c1ccccc1NS(=O)(=O)c1ccccc1`, the T/C (dose: 100.0 mg/kg/injection, schedule: Q04DX003 (ip), vehicle: saline) was 113 % of control, the T/C (dose: 200.0 mg/kg/injection, schedule: Q04DX003 (ip), vehicle: saline) was 103 % of control and the T/C (dose: 400.0 mg/kg/injection, schedule: Q04DX003 (ip), vehicle: saline) was 108 % of control.

`CCC/C=C/C=C/C(=O)OC1C(C)C2(O)C3C=C(C)C(=O)C3CC(COC(C)=O)=CC2C2C(C)(C)C12OC(=O)C(C)C` (stereo not drawn) was tested, and the T/C (dose: 0.12 mg/kg/injection, schedule: Q01DX009 (ip), vehicle: Klucel (hydroxypropylcellulose) (HPC)) was 111 % of control, the T/C (dose: 0.25 mg/kg/injection, schedule: Q01DX009 (ip), vehicle: Klucel (hydroxypropylcellulose) (HPC)) was 103 % of control and the T/C (dose: 0.5 mg/kg/injection, schedule: Q01DX009 (ip), vehicle: Klucel (hydroxypropylcellulose) (HPC)) was 107 % of control. The T/C (dose: 1.0 mg/kg/injection, schedule: Q01DX005 (ip), vehicle: distilled water + Tween-80) was 109 % of control and 113 % of control, the T/C (dose: 1.0 mg/kg/injection, schedule: Q01DX009 (ip), vehicle: Klucel (hydroxypropylcellulose) (HPC)) was 106 % of control and the T/C (dose: 2.0 mg/kg/injection, schedule: Q01DX005 (ip), vehicle: distilled water + Tween-80) was 121 % of control and 123 % of control. The T/C (dose: 2.0 mg/kg/injection, schedule: Q01DX005 (ip), vehicle: saline + alcohol) was 115 % of control and the T/C (dose: 4.0 mg/kg/injection, schedule: Q01DX005 (ip), vehicle: saline + alcohol) was 123 % of control.

For `O=C1CC2CCC1CC2c1cnc[nH]1` (stereo not drawn), the T/C (dose: 25.0 mg/kg/injection, schedule: Q04DX002 (ip), vehicle: saline with Tween-80) was 93 % of control, the T/C (dose: 50.0 mg/kg/injection, schedule: Q04DX002 (ip), vehicle: saline with Tween-80) was 100 % of control and the T/C [10] was 102 % of control.

For `NC(=O)c1nn(C2OC(CO)C(O)C2O)c2ncnc(N)c12` (stereo not drawn), the T/C (dose: 3.0 mg/kg/injection, schedule: Q01DX009 (ip), vehicle: Klucel (hydroxypropylcellulose) (HPC)) was 152 % of control and the T/C (dose: 6.0 mg/kg/injection, schedule: Q01DX009 (ip), vehicle: Klucel (hydroxypropylcellulose) (HPC)) was 190 % of control.

From PubChem BioAssay AID330 (DTP/NCI, 2004)
